System: MHC class I molecules of T1 cells (human lymphoma cell line 174×CEM.)
Experiment: Effect on expression of MHC class I from T1 cells (flow cytometry, MFI)
Assay type: cell-based
Conditions: 3 days culture
Description: Effect on Expression of MHC Class I from T1 Cells (Human Lymphoma Cell Line 174×CEM.)
Using a 96-well flat bottom microplate, T1 cells (5.7×10^3 cells/200 μl/well) were cultured in an RPMI 1640 medium (Iwaki Glass) containing 10% fetal bovine serum (hereinafter abbreviated as FBS; Iruvine Scientific) in an incubator containing 5% carbon dioxide at 37° C. for 3 days, in the presence of a test compound having each concentration obtained by dilution at a common ratio route of 10 from 400 μM. After completion of the culture, the cells were stained with fluoroisothiocyanate-labeled mouse anti-human MHC class I monoclonal antibody (an antibody produced from the cell line W6/32 (ATCC No. CRL 1991)). The mean fluorescence intensity of the stained cells (hereinafter referred to as MFI) was measured using flow cytometry FACScan (BD). The obtained value was defined as an expression level of MHC class I molecules. A test compound concentration necessary for suppressing 20% of the expression level of MHC class I molecules (EC20 value) was calculated using the following formula (1).
[formula] • Eexp: MFI of cultured cells containing test compound after being stained with antibody • Cexp: MFI of cultured cells containing no test compounds after being stained with antibody

| Molecule | EC20 (concentration necessary for suppressing 20% of the expression level of MHC class I molecules) |
| --- | --- |
| COc1cccc([C@H](C)NC(=O)Nc2nc3nccc(-c4cccc(OCc5ccncc5)c4)n3n2)c1 [Example 203] | 0.19 µM |
| CCC[C@H](NC(=O)Nc1nc2nccc(-c3ccc(OC)cc3)n2n1)C(=O)N1CCOCC1 [Example 152] | 0.78 µM |
| COc1ccc(-c2ccnc3nc(NC(=O)NC(C)c4cccc(O)c4)nn23)cc1 (racemic) [Example 196] | 0.17 µM |
| CC[C@H](NC(=O)Nc1nc2nccc(-c3ccc(OC)cc3)n2n1)C(=O)NC(C)C(=O)OC (stereo partly drawn) [Example 150] | 0.71 µM |
| CCC[C@H](NC(=O)Nc1nc2nccc(-c3ccc(OC)cc3)n2n1)C(=O)Nc1ccccc1 [Example 151] | 0.22 µM |
| O=C(Nc1nc2nccc(-c3cccc(OCc4ccncc4)c3)n2n1)NC1CCCCC1 [Example 171] | 0.29 µM |
| COc1ccc(-c2ccnc3nc(NC(=O)NC(C)CCC(C)=O)nn23)cc1 (stereo not drawn) [Example 326] | 0.21 µM |
| CC(CCC(C)(C)O)NC(=O)Nc1nc2nccc(-c3cccs3)n2n1 (stereo not drawn) [Example 318] | 0.04 µM |
| COc1ccc(-c2ccnc3nc(NC(=O)NC(C)c4ccc5c(c4)OCO5)nn23)cc1 (stereo not drawn) [Example 297] | 0.11 µM |
| COc1ccc(-c2ccnc3nc(NC(=O)N[C@H](C(=O)NCc4cccnc4)C(C)C)nn23)cc1 [Example 078] | 0.67 µM |
| CCOC(=O)N1CCC(NC(=O)Nc2nc3nccc(-c4ccc(OC)cc4)n3n2)CC1 [Example 138] | 0.15 µM |
| COc1cccc([C@H](C)NC(=O)Nc2nc3nccc(-c4cccc(OCCN5CCOCC5)c4)n3n2)c1.Cl [Example 204] | 0.07 µM |
| COc1ccc(-c2ccnc3nc(NC(=O)N[C@@H](C)C(=O)N4CCN(C)CC4)nn23)cc1 [Example 123] | 0.48 µM |
| COc1ccc(-c2ccnc3nc(NC(=O)N[C@H](C(=O)N(C)C)C(C)C)nn23)cc1 [Example 056] | 0.55 µM |
| COCCOc1cccc(-c2ccnc3nc(NC(=O)N[C@@H](C)CCCC(C)C)nn23)c1 [Example 264] | 0.07 µM |
| COc1ccc(-c2ccnc3nc(NC(=O)NC(C)CCN(C)C(=O)OC(C)(C)C)nn23)cc1 (stereo not drawn) [Example 277] | 0.18 µM |
| COc1ccc(-c2ccnc3nc(NC(=O)NCC(=O)Nc4ccccc4)nn23)cc1 [Example 144] | 0.46 µM |
| COc1ccc(-c2ccnc3nc(NC(=O)N[C@H](C(=O)NC4CCN(Cc5ccccc5)CC4)C(C)C)nn23)cc1 [Example 074] | 0.55 µM |
| COCCCC(C)NC(=O)Nc1nc2nccc(-c3cccs3)n2n1 (stereo not drawn) [Example 315] | 0.27 µM |
| COc1ccc([C@H](C)NC(=O)Nc2nc3nccc(-c4cccc(OC)c4)n3n2)cc1 [Example 186] | 0.44 µM |
| CC(CCCC(C)(C)O)NC(=O)Nc1nc2nccc(-c3cccs3)n2n1 (stereo not drawn) [Example 272, 1-(5-hydroxy-1,5-dimethylhexyl)-3-(7-thiophen-2-yl[1,2,4]triazolo[1,5-a]pyrimidin-2-yl)urea] | 0.069 µM |
| CCOCCC(C)NC(=O)Nc1nc2nccc(-c3cccs3)n2n1 (stereo not drawn) [Example 281] | 0.12 µM |
| COc1ccc(-c2ccnc3nc(NC(=O)N[C@@H](C)C(C)(C)C)nn23)cc1 [Example 217] | 0.32 µM |
| CC(CCCC(C)(C)O)NC(=O)Nc1nc2nccc(-c3cccc(OCc4cccnc4)c3)n2n1 (stereo not drawn) [Example 313, 1-(5-hydroxy-1,5-dimethylhexyl)-3-{7-[3-(pyridin-3-ylmethoxy)phenyl]-[1,2,4]triazolo[1,5-a]pyrimidin-2-yl}urea] | 0.29 µM |

| Molecule | EC20 (concentration necessary for suppressing 20% of the expression level of MHC class I molecules) |
| --- | --- |
| COC(C)(C)CCC[C@H](C)NC(=O)Nc1nc2nccc(-c3cccs3)n2n1 [Example 288] | 0.02 µM |
| O=C(Nc1nc2nccc(-c3ccccc3)n2n1)NC1CCCCC1 [Example 014] | 0.57 µM |
| COc1cccc(-c2ccnc3nc(NC(=O)NC(C)C)nn23)c1 [Example 044] | 0.48 µM |
| COc1ccc(-c2ccnc3nc(NC(=O)NCc4ccncc4)nn23)cc1 [Example 103] | 0.62 µM |
| COc1ccc(-c2ccnc3nc(NC(=O)N[C@@H](C)C(=O)NCCN4CCCCC4)nn23)cc1.Cl [Example 125] | 0.82 µM |
| COc1cccc([C@H](C)NC(=O)Nc2nc3nccc(-c4ccc(OCC5CCCO5)cc4)n3n2)c1 (stereo partly drawn) [Example 224] | 0.09 µM |
| CC(NC(=O)Nc1nc2nccc(-c3cccc(OCc4cccnc4)c3)n2n1)c1ccc2c(c1)OCO2 (stereo not drawn) [Example 306] | 0.23 µM |
| COc1cccc([C@H](C)NC(=O)Nc2nc3nccc(-c4cccc(Cl)c4)n3n2)c1 [Example 303] | 0.68 µM |
| 1-(4-methoxy-1-methylbutyl)-3-[7-(4-methoxyphenyl)-[1,2,4]triazolo[1,5-a]pyrimidin-2-yl]urea [Example 333] | 0.41 µM |
| COCCOCOc1cccc(-c2ccnc3nc(NC(=O)N[C@@H](C)c4cccc(OC)c4)nn23)c1 [Example 213] | 0.15 µM |
| COc1cccc([C@H](C)NC(=O)Nc2nc3nccc(-c4cccc(OCCCN(C)C)c4)n3n2)c1 [Example 221] | 0.12 µM |
| CC(C)CCC[C@H](C)NC(=O)Nc1nc2nccc(-c3ccc(O)cc3)n2n1 [Example 255, (S)-1-(1,5-dimethylhexyl)-3-[7-(4-hydroxyphenyl)-[1,2,4]triazolo[1,5-a]pyrimidin-2-yl]urea] | 0.0056 µM |
| CC(C)NC(=O)Nc1nc2nccc(-c3ccc4c(c3)CCO4)n2n1 [Example 046] | 0.34 µM |
| CCCC(C)NC(=O)Nc1nc2nccc(-c3ccc(OC)cc3)n2n1 (stereo not drawn) [Example 285] | 0.32 µM |
| C[C@H](NC(=O)Nc1nc2nccc(-c3ccc(O)cc3)n2n1)c1cccc(O)c1 [Example 266] | 0.2 µM |
| COc1cccc([C@H](C)NC(=O)Nc2nc3nccc(-c4cccc(OCCCc5cccnc5)c4)n3n2)c1 [Example 210] | 0.13 µM |
| COc1cccc([C@H](C)NC(=O)Nc2nc3nccc(-c4cccc(OCCN(C)C)c4)n3n2)c1 [Example 205] | 0.19 µM |
| COc1ccc(-c2ccnc3nc(NC(=O)NC(C)c4cc(OC)c(OC)c(OC)c4)nn23)cc1 (stereo not drawn) [Example 296] | 0.07 µM |
| COCCOCCOCCOc1cccc(-c2ccnc3nc(NC(=O)N[C@@H](C)CCCC(C)C)nn23)c1 [Example 265] | 0.11 µM |
| COc1ccc(-c2ccnc3nc(NC(=O)N[C@H](C(=O)O)C(C)C)nn23)cc1 [Example 054] | 0.63 µM |
| CC(NC(=O)Nc1nc2nccc(-c3ccc4c(c3)OCO4)n2n1)c1ccc2c(c1)OCO2 (stereo not drawn) [Example 301] | 0.64 µM |
| COc1ccc(-c2ccnc3nc(NC(=O)NCCCn4ccnc4)nn23)cc1 [Example 066] | 0.72 µM |
| COc1ccc(-c2ccnc3nc(NC(=O)NC45CC6CC(CC(C6)C4)C5)nn23)cc1 [Example 035] | 0.38 µM |
| COc1ccc(-c2ccnc3nc(NC(=O)N[C@H]4CCCc5ccccc54)nn23)cc1 [Example 134] | 0.05 µM |

Source: US7598244B2, “[1,2,4]triazolo[1,5,a]pyrimidin-2-ylurea derivative and use thereof” (Nippon Kayaku Kabushiki Kaisha, priority 2003, dated 2009)
